From BindingDB's records for doi:10.7270/Q21V5CBG (NMMLSC, 2007)

What follows are compounds tested against T1, fMet-Leu-Phe receptor (Homo sapiens, UniProt P21462) (assay: FPR1 fluorescent ligand binding inhibitors, dose response, selectivity assay for FPRL1 ligand SAR project, cell-based, flow cytometry, IC50 (AID 762)).
T1 sequence (P21462 whole entry): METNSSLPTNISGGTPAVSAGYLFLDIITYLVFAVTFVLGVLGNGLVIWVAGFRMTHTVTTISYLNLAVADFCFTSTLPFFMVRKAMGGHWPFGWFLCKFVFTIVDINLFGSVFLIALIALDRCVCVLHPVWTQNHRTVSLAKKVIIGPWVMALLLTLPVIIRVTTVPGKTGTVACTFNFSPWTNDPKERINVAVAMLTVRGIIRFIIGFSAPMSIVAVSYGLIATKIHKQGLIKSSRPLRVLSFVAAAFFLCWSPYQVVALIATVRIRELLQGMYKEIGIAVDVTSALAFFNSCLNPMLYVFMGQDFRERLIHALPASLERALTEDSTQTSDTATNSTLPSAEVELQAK

Compound | Ki [µM]
COc1ccc(-c2cn3cccnc3n2)cc1NC(=O)C1CC1 [MLS000045944] | > 47.2
COc1ccc(-c2cn3cccnc3n2)cc1NC(=O)C1CCCC1 [MLS000045945] | > 43.3
COc1ccc(-c2cn3cccnc3n2)cc1NC(=O)C(C)C [N-(5-imidazo[1,2-a]pyrimidin-2-yl-2-methoxy-phenyl)-2-methyl-propanamide] | > 46.9
CCC(=O)Nc1cc(-c2cn3cccnc3n2)ccc1OC [N-(5-imidazo[1,2-a]pyrimidin-2-yl-2-methoxy-phenyl)propanamide] | > 49.1

Continued, values first:

Ki [µM] | Compound
> 37.6 | O=C(N1CCN(c2nc(-c3ccccc3)c3ccccc3n2)CC1)C(F)(F)F [2,2,2-trifluoro-1-[4-(4-phenyl-2-quinazolinyl)-1-piperazinyl]ethanone]
> 27.2 | COc1ccc(-c2cc(C(F)(F)F)nc(N3CCN(C(c4ccccc4)c4ccccc4)CC3)n2)cc1OC [2-(4-benzhydrylpiperazin-1-yl)-4-(3,4-dimethoxyphenyl)-6-(trifluoromethyl)pyrimidine]
> 31.7 | COc1ccc(-c2cc(C(F)(F)F)nc(N3CCN(Cc4ccccc4)CC3)n2)cc1OC [2-(4-benzylpiperazin-1-yl)-4-(3,4-dimethoxyphenyl)-6-(trifluoromethyl)pyrimidine]
> 32.7 | COc1ccc(-c2cc(C(F)(F)F)nc(N3CCN(c4ccccc4)CC3)n2)cc1OC [4-(3,4-dimethoxyphenyl)-2-(4-phenyl-1-piperazinyl)-6-(trifluoromethyl)pyrimidine]
> 33 | CCOC(=O)N1CCN(c2nc(-c3ccc(OC)c(OC)c3)cc(C(F)(F)F)n2)CC1 [4-[4-(3,4-dimethoxyphenyl)-6-(trifluoromethyl)-2-pyrimidinyl]-1-piperazinecarboxylic acid ethyl ester]
> 37.4 | COc1ccc(CC(=O)Nc2cc(-c3cn4cccnc4n3)ccc2OC)cc1 [N-(5-imidazo[1,2-a]pyrimidin-2-yl-2-methoxy-phenyl)-2-(4-methoxyphenyl)acetamide]
